According to patent US20140256664A1, “COMPOSITIONS AND METHODS FOR A MYCOBACTERIUM TUBERCULOSIS DRUG SUSCEPTIBILITY TEST” (priority 2011, published 2014):
Counter-ions that a name gives are not always drawn. Like-named read-outs stand apart in the source and are kept apart here.

Tests used:
Type in all cases: cell-based, Mycobacterium tuberculosis
[1] = test system: M. tuberculosis isolates
[2] = test system: M. tuberculosis H37Rv (ATCC 27294); test: D29 phage-qPCR assay development on H37Rv; conditions: for duration of drug treatment at which qPCR Ct became clearly disparate from control: drug treatment followed by 24 h phage incubation, FIG. 1D
[3] = test system: M. tuberculosis in smear positive sputum sediments; conditions: total 22 sediments
[4] = test system: 33 isolates of M. tuberculosis; conditions: for need for drug pre-treatment prior to phage incubation: Tb inoculum and phage added simultaneously, significant ΔCt in 24 hour
[5] = test system: M. tuberculosis isolates; remark: listed apart in the source
[6] = strains confirmed as drug susceptible by agar proportion

Molecule | Agar proportion R (n isolates) ([1]; phage assay result R) | Agar proportion S (n isolates) ([1]; phage assay result R) | Agar proportion R (n isolates) ([1]; phage assay result S) | Agar proportion S (n isolates) ([1]; phage assay result S) | Culture R (n samples) ([3]; sediment phage assay result R) | Culture S (n samples) ([3]; sediment phage assay result R) | Culture R (n samples) ([3]; sediment phage assay result S) | Culture S (n samples) ([3]; sediment phage assay result S) | need for drug pre-treatment prior to phage incubation [4] | other results
NNC(=O)c1ccncc1 [Isoniazid, isoniazid] | 22 | 9 | 5 | 118 | 1 | 3 | 0 | 18 | – | number of phage / real-time PCR Ct value after drug pre-treatment [2]: the number of phage did not increase/Ct value did not decrease; need for drug pre-treatment prior to phage incubation ([2]; H37Rv, FIG. 1E, 48 h superior to 24 h, 6 h and 3 h): pre-treatment was required; duration of drug treatment at which qPCR Ct became clearly disparate from control ([2]; H37Rv): 48 h
N[C@@H]1CON=C1O [Cycloserine, D-cycloserine] | – | – | – | – | – | – | – | – | no pre-treatment was required | –
Nc1ccc(C(=O)O)c(O)c1 [para-aminosalicylic acid] | – | – | – | – | – | – | – | – | – | duration of drug treatment of Tb prior to 24 hours of phage incubation yielding optimal ΔCt [4, 6]: 48 h
CC[C@@H](CO)NCCN[C@@H](CC)CO [Ethambutol, ethambutol hydrochloride] | 0 | 1 | 8 | 145 | 0 | 0 | 0 | 22 | – | Agar proportion susceptible (n isolates) ([5]; listed as EMB, hydrochloride): 12; D29 phage assay susceptible (n isolates) ([4]; listed as EMB, hydrochloride): 12; duration of drug treatment of Tb prior to 24 hours of phage incubation yielding optimal ΔCt [4, 6]: 48 h
CC(=O)NC[C@H]1CN(c2ccc(N3CCOCC3)c(F)c2)C(=O)O1 [Linezolid, linezolid] | – | – | – | – | – | – | – | – | no pre-treatment was required | –
NCC[C@H](O)C(=O)N[C@@H]1C[C@H](N)[C@@H](O[C@H]2O[C@H](CN)[C@@H](O)[C@H](O)[C@H]2O)[C@H](O)[C@H]1O[C@H]1O[C@H](CO)[C@@H](O)[C@H](N)[C@H]1O [Amikacin, amikacin] | – | – | – | – | – | – | – | – | no pre-treatment was required | Agar proportion susceptible (n isolates) ([5]; listed as AMK): 31; D29 phage assay susceptible (n isolates) ([4]; listed as AMK): 31
capreomycin sulfate | – | – | – | – | – | – | – | – | no pre-treatment was required | Agar proportion susceptible (n isolates) ([5]; listed as CAP): 31; D29 phage assay susceptible (n isolates) ([4]; listed as CAP): 30
CCc1cc(C(N)=S)ccn1 [Ethionamide, ethionamide] | – | – | – | – | – | – | – | – | – | duration of drug treatment of Tb prior to 24 hours of phage incubation yielding optimal ΔCt [4]: 48 h
CO[C@H]1/C=C/O[C@@]2(C)Oc3c(C)c(O)c4c(O)c(c(/C=N/N5CCN(C)CC5)c(O)c4c3C2=O)NC(=O)/C(C)=C\C=C\[C@H](C)[C@H](O)[C@@H](C)[C@@H](O)[C@@H](C)[C@H](OC(C)=O)[C@@H]1C [Rifampin, rifampin] | 5 | 2 | 5 | 142 | 1 | 0 | 0 | 21 | – | number of phage / real-time PCR Ct value after drug pre-treatment [2]: the number of phage did not increase/Ct value did not decrease; ΔCtRIF (Ct control−Ct drug) [2]: −12; ΔCt ([2]; H37Rv pre-treated with drug for 72 hours, FIG. 1B): approximately −5; duration of drug treatment at which qPCR Ct became clearly disparate from control ([2]; H37Rv): 24 h; Agar proportion susceptible (n isolates) ([5]; listed as RIF): 11; D29 phage assay susceptible (n isolates) ([4]; listed as RIF): 11
[H]/N=C(/N)N[C@H]1[C@H](O)[C@@H](O)[C@H](O[C@@H]2O[C@@H](C)[C@](O)(C=O)[C@H]2O[C@@H]2O[C@@H](CO)[C@H](O)[C@@H](O)[C@@H]2NC)[C@@H](N/C(N)=N\[H])[C@@H]1O [Streptomycin, streptomycin sulfate] | 16 | 0 | 3 | 135 | 1 | 0 | 1 | 20 | no pre-treatment was required | –
